The target of one series is Cytochrome P450 2C9 (Homo sapiens, UniProt P11712).
A further series addresses Cytochrome P450 2D6 (Homo sapiens, UniProt P10635).
Series [1] can be described thus: Luminescence Cell-Based Dose Confirmation HTS to Identify Inhibitors of Platelet Dense Granule Release. [Related pubchem assays: 1663 (Primary HTS), 1678 (Summary of Project)]. It is filed as functional.
In series [2] the target is Luciferin 4-monooxygenase (Photinus pyralis, UniProt P08659). Nature of the series: firefly luciferase enzyme inhibitors, dose response, biochemical, luminescence (AID 1891).
Chain of Luciferin 4-monooxygenase (P08659 whole entry): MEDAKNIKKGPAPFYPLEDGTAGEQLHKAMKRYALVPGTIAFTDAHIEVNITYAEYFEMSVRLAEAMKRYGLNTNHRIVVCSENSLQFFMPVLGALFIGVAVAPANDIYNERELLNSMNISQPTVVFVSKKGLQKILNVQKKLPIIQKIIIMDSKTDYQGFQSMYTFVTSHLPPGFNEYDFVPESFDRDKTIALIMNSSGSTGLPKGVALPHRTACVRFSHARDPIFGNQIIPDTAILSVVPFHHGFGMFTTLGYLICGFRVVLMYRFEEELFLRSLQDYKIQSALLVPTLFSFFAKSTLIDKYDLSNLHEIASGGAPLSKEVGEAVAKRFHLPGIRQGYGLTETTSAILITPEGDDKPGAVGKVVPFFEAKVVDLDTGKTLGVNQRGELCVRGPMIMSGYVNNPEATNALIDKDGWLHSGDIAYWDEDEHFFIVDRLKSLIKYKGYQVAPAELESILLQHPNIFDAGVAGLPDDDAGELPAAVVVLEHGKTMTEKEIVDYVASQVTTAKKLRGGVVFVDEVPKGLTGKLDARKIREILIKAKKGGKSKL
In another series the target is Cytochrome P450 2C19 (Homo sapiens, UniProt P33261). Nature of the series: Cytochrome panel assay with activity outcomes. Panel member name: p450-cyp2c19 Compounds with AC50 equal or less than 10 uM are considered active. It counts as functional. The conditions noted are these: read-out: AC50.
Chain of Cytochrome P450 2C19 (P33261 whole entry): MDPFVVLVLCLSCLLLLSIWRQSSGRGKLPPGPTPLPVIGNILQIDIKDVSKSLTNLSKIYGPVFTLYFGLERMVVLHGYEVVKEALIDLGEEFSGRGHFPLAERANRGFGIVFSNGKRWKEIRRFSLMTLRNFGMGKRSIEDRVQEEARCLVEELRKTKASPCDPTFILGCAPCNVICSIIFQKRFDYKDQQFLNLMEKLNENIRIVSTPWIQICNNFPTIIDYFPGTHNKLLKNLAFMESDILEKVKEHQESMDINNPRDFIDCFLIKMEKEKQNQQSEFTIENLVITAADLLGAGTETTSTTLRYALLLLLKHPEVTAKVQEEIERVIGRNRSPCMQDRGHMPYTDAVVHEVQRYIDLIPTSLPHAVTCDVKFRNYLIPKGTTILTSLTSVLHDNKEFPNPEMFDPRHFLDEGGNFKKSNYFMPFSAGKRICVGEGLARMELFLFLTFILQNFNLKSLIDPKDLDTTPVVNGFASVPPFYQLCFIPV
Series [3] deals with T1, Rac GTPase-activating protein 1 (Homo sapiens, UniProt Q9H0H5).
T1 sequence (Q9H0H5 whole entry): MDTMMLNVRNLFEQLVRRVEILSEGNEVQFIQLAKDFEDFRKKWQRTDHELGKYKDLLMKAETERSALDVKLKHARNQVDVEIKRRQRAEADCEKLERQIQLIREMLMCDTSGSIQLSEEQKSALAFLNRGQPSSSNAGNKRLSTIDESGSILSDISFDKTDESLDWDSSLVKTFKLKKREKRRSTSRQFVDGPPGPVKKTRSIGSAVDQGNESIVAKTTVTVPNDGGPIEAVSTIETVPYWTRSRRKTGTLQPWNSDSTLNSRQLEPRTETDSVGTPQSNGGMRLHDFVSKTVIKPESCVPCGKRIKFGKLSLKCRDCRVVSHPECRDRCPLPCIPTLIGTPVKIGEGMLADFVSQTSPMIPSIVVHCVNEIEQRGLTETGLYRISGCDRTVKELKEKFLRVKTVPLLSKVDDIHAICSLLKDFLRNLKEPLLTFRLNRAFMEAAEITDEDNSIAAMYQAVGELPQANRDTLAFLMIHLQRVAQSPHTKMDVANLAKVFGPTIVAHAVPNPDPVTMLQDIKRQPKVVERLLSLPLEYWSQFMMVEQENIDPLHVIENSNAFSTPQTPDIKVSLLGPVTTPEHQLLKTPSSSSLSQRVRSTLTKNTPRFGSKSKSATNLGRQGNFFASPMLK
As to the kind of experiment: MgcRacGAP GTPase-activating activity inhibitors, confirmation, biochemical, ADP Hunter fluorescence, primary and confirmatory (AID 624330). It counts as functional.

Series [4] has as its target T2, Ubiquitin-conjugating enzyme E2 N (Homo sapiens, UniProt P61088).
T2 sequence (P61088 whole entry): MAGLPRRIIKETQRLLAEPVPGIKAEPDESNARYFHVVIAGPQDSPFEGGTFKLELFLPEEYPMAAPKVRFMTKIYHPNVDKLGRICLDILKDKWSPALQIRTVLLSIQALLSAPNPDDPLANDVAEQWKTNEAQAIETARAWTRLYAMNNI
It is filed as functional.

Another series addresses Bcl-2-related protein A1 (Mus musculus, UniProt Q07440). It is filed as functional.
Series [5] concerns the target T2, Ubiquitin-conjugating enzyme E2 N. It is filed as functional. The source holds these as a separate data set.

Each structure is given as a SMILES string. Activity calls are given as the source filed them.

Results on three compounds are retold here after ChEMBL document CHEMBL1201862, “PubChem BioAssay data set” (2004).

What is called AC50 is the concentration at which the activity in the assay is half-maximal. In general, EC50 refers to the midpoint of the concentration-response curve. A lower EC50 goes with an effect from little substance. Usually IC50 stands for the point on the concentration scale where inhibition reaches its midpoint.

Chain of Cytochrome P450 2D6 (P10635 whole entry): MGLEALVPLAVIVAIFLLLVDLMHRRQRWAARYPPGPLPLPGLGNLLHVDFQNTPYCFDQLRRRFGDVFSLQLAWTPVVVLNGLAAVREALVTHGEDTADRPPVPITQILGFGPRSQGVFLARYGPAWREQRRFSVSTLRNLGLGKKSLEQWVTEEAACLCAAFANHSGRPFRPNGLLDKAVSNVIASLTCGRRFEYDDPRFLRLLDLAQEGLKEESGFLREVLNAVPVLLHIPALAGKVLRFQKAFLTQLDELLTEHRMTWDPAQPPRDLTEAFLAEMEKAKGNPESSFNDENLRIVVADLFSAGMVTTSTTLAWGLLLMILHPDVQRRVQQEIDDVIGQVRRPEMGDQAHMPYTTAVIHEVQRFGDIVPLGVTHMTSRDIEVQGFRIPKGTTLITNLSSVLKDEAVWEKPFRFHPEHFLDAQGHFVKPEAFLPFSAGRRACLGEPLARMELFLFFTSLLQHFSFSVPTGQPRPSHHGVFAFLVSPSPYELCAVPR
Chain of Cytochrome P450 2C9 (P11712 whole entry): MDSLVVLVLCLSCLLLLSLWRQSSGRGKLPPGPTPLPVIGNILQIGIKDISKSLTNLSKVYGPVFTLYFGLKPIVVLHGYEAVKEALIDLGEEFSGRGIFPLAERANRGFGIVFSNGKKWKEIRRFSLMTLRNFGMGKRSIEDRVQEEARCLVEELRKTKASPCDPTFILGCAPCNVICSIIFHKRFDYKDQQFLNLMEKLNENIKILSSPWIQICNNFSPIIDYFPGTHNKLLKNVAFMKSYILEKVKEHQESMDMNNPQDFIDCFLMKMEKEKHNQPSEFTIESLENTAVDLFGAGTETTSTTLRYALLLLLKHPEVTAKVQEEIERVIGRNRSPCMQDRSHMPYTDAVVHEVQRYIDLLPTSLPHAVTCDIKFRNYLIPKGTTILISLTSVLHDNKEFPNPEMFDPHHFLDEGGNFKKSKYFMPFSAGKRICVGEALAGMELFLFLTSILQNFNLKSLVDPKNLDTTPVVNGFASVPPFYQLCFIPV
Chain of Bcl-2-related protein A1 (Q07440 whole entry): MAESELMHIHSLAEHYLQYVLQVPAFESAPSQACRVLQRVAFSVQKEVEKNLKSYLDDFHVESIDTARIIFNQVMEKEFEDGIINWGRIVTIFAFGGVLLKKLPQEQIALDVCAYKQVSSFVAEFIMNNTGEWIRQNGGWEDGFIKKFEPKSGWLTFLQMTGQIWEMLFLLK

For the compound `Cc1ccc(NC(=O)c2cc(NC(=O)CCCC(=O)O)ccc2Cl)cc1Cl`, the AC50 at Cytochrome P450 2C9 was 15.8 µM (inconclusive); on Cytochrome P450 2D6 it was “inconclusive”; at Cytochrome P450 2C19 it was 0.891 µM (inconclusive). In addition, the EC50 in series [1] and in series [2] was > 112 µM (not active) throughout.

As to `C#CCOCCOCCOCCNc1nc(N2CCN(C(=O)[C@H](CCCCN)n3cc([C@@H](N)C(C)CC)nn3)CC2)nc(N2CCN(C(=O)[C@H](CCCCN)n3cc([C@@H](N)CC(C)C)nn3)CC2)n1` (stereo not given in full), the IC50 is 114 µM (active) in series [3], 7.14 µM (active) in series [4], > 20 µM (inactive) on Bcl-2-related protein A1 and 8.4 µM (active) in series [5].

Take `C#C[C@H](N)CCC(=O)O`: on Cytochrome P450 2D6, the AC50 result was “inconclusive”.
